For 8 molecules, GI50 and TGI results are on record in PubChem BioAssay (NCI).

Values joined by “and” are separate entries in the source; they are usually repeats but may differ in a detail not shown here. Equal entries are not always repeated.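 Exposure lasted 48 hours, with cells grown in 96-well plates and compounds tested at five concentrations. GI50: concentration for 50% inhibition of growth. Definition used: TGI = concentration required for complete inhibition of growth.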 Bounds are passed on as bounds.

Among the test systems are A498 renal; A549 NSCLC; BT-549 breast; CCRF-CEM leukemia; HCT-116 colon; HS 578T breast; LOX IMVI melanoma; RXF 393 renal; SR leukemia; T-47D breast.
Holding throughout (assay): growth of human tumour cells (NCI), 48 h

Consider `CC[C@H](C)C(=O)O[C@H]1CCC=C2C=C[C@H](C)[C@H](CC[C@@H]3C[C@@H](O)CC(=O)O3)[C@H]21`, for which the GI50 in the experiment with A498 renal was 0.183 µM; in the experiment on A549 NSCLC, 11.7 µM; with BT-549 breast, 14.4 µM; in the experiment on CCRF-CEM leukemia, 34.1 µM; in the experiment on HCT-116 colon, 2.84 µM; with HS 578T breast, 4.56 µM. The GI50 in the experiment with LOX IMVI melanoma was 1.07 µM; in the experiment on RXF 393 renal, 3.32 µM; in the experiment with SR leukemia it was 3.79 µM; in the experiment on T-47D breast, 21.9 µM. Further, the TGI in the experiment with A498 renal is 1.36 µM; with A549 NSCLC, > 100 µM; in the experiment on BT-549 breast, > 78.5 µM; in the experiment with CCRF-CEM leukemia it was > 100 µM; in the experiment with HCT-116 colon, > 59 µM; in the experiment with HS 578T breast it was > 100 µM. Moreover, the TGI is 6.53 µM in the experiment on LOX IMVI melanoma, 16.6 µM in the experiment with RXF 393 renal, > 59.4 µM with SR leukemia and > 100 µM in the experiment on T-47D breast.

Regarding `CCc1c2c(nc3ccc(OC(=O)OCc4ccc(B5OC(C)(C)C(C)(C)O5)cc4)cc13)-c1cc3c(c(=O)n1C2)COC(=O)[C@]3(O)CC`, the GI50 was 0.011 µM with A498 renal; 0.0556 µM in the experiment with A549 NSCLC; < 0.0291 µM in the experiment on BT-549 breast; < 0.01 µM with CCRF-CEM leukemia; < 0.0111 µM in the experiment with HCT-116 colon; 0.547 µM with HS 578T breast. In addition, the GI50 in the experiment with LOX IMVI melanoma is < 0.01 µM; in the experiment with RXF 393 renal, 0.0136 µM; in the experiment with SR leukemia, < 0.01 µM; with T-47D breast it was < 0.01 µM. In addition, the TGI is 0.0725 µM in the experiment with A498 renal; 5.45 µM with A549 NSCLC; 1.51 µM with BT-549 breast; > 100 µM in the experiment with CCRF-CEM leukemia; > 100 µM in the experiment with HCT-116 colon; 19.8 µM in the experiment on HS 578T breast. Also, the TGI with LOX IMVI melanoma was 0.196 µM; with RXF 393 renal, 0.134 µM; in the experiment with SR leukemia, > 100 µM; with T-47D breast it was > 100 µM.

Turning to `COc1cc2c(cc1OC)-c1c(c3ccc([N+](=O)[O-])cc3c(=O)n1CCCN=[N+]=[N-])C2=O`, the GI50 is 40.7 µM in the experiment with A498 renal; 56.6 µM in the experiment on A549 NSCLC; > 100 µM with BT-549 breast; 31.5 µM with HCT-116 colon; > 100 µM in the experiment on HS 578T breast; 25.3 µM with LOX IMVI melanoma. For the same molecule, the results for the GI50 with RXF 393 renal, in the experiment on SR leukemia and in the experiment on T-47D breast were > 100 µM, 0.509 µM and > 100 µM, respectively. For the same molecule, the TGI in the experiment on A498 renal, in the experiment with A549 NSCLC, in the experiment on BT-549 breast, in the experiment on HCT-116 colon, with HS 578T breast and in the experiment with LOX IMVI melanoma was > 100 µM in each case. Further, the figures for the TGI in the experiment with RXF 393 renal, with SR leukemia and in the experiment with T-47D breast were > 100 µM, 3.68 µM and > 100 µM, respectively.

Regarding `COc1ccc(-c2nsc3c2NC(=O)CC3c2cccc(F)c2)cc1` (stereo unspecified), the GI50 is 5.16 µM in the experiment on A549 NSCLC; 7.77 µM in the experiment with BT-549 breast; 4.89 µM in the experiment on CCRF-CEM leukemia; 4.14 µM with HCT-116 colon; 3.95 µM with HS 578T breast; 6.5 µM in the experiment with LOX IMVI melanoma. The figures for the GI50 in the experiment on RXF 393 renal, in the experiment on SR leukemia and in the experiment with T-47D breast were 4.04 µM, 2.44 µM and 4.81 µM, respectively. The TGI in the experiment with A549 NSCLC, in the experiment with BT-549 breast, with CCRF-CEM leukemia, with HCT-116 colon, in the experiment on HS 578T breast and with LOX IMVI melanoma was > 100 µM each time. For the same molecule, the TGI in the experiment on RXF 393 renal, with SR leukemia and in the experiment on T-47D breast was > 100 µM each time.

For the molecule `O=C(Nc1cccc(-n2ccc3c(NC(=O)c4ccccc4)nccc32)c1)c1ccc(Cl)c(Cl)c1`, the GI50 in the experiment on A498 renal is 0.13 µM; with A549 NSCLC, 0.136 µM; in the experiment with BT-549 breast, 0.214 µM; in the experiment with HCT-116 colon, 0.0989 µM; in the experiment on HS 578T breast, 0.0822 µM; with LOX IMVI melanoma, 0.219 µM. Moreover, the GI50 with RXF 393 renal was 0.106 µM; in the experiment with SR leukemia it was 0.0408 µM; with T-47D breast, 1.32 µM. Further, the TGI with A498 renal turned out to be 0.735 µM; with A549 NSCLC it was 1.71 µM; in the experiment on BT-549 breast, 1.26 µM; in the experiment on HCT-116 colon, 1.22 µM; in the experiment with HS 578T breast, 1.31 µM; in the experiment on LOX IMVI melanoma, 1.57 µM. Also, the results for the TGI in the experiment on RXF 393 renal and in the experiment with T-47D breast were 0.639 µM and 2.85 µM, respectively.

As for `Cc1cc(C(=O)CC(Cl)=C(Cl)Cl)c(Cl)cc1Cl`, the GI50 in the experiment with A498 renal was 18.2 µM; in the experiment on A549 NSCLC, 23.7 µM; with BT-549 breast it was 20.2 µM; with CCRF-CEM leukemia it was 3.54 µM; in the experiment with HCT-116 colon, 19.1 µM; in the experiment on HS 578T breast it was 30.3 µM. Further, the GI50 with LOX IMVI melanoma is 17.6 µM; with RXF 393 renal, 17.8 µM; in the experiment on T-47D breast, 19.9 µM. The TGI was found to be 51.5 µM in the experiment with A498 renal; 65.9 µM in the experiment on A549 NSCLC; 44.4 µM with BT-549 breast; 27.3 µM in the experiment with CCRF-CEM leukemia; 33.2 µM in the experiment with HCT-116 colon; 78.4 µM in the experiment with HS 578T breast. Also, the TGI stood at 33.8 µM in the experiment on LOX IMVI melanoma, 43.1 µM with RXF 393 renal and 44.2 µM in the experiment on T-47D breast.

With `CC(=O)OCC1OC([S-])C(OC(C)=O)C(OC(C)=O)C1OC(C)=O.[Au+].c1ccc(CN2[CH-]N(Cc3ccccc3)C(c3ccccc3)=C2c2ccccc2)cc1`, the TGI in the experiment with A549 NSCLC is 34.7 µM and 7.32 µM; with BT-549 breast, 4.32 µM and 2.69 µM; in the experiment on CCRF-CEM leukemia, 13.8 µM and 9.52 µM; with HCT-116 colon, 9.95 µM and 2.52 µM; in the experiment with HS 578T breast it was 8.56 µM and 7.74 µM; with LOX IMVI melanoma, 3.1 µM and 1.32 µM. The TGI in the experiment with RXF 393 renal was 3.19 µM and 1.26 µM; in the experiment with SR leukemia, 8.26 µM and 47.5 µM; in the experiment on T-47D breast, 3.81 µM and 2.75 µM. The GI50 with BT-549 breast was 2.03 µM and 0.375 µM; with CCRF-CEM leukemia, 2.65 µM and 0.283 µM; with HCT-116 colon, 3.08 µM and 0.554 µM; in the experiment on HS 578T breast it was 2.62 µM and 0.396 µM; in the experiment on LOX IMVI melanoma, 1.65 µM and 0.563 µM; in the experiment on RXF 393 renal it was 1.71 µM and 0.527 µM. The GI50 is 2.7 µM and 0.364 µM in the experiment with SR leukemia; 1.72 µM and 0.417 µM with T-47D breast.

As to `Cc1ccc2c(c1)C(=O)/C(=C/c1cccc(OCC(=O)c3ccc(Cl)cc3)c1)CS2`, the GI50 was 33.4 µM with A549 NSCLC; 12.8 µM with BT-549 breast; 2.38 µM in the experiment with CCRF-CEM leukemia; 1.89 µM in the experiment on HCT-116 colon; 1.54 µM in the experiment on HS 578T breast; 1.84 µM in the experiment on LOX IMVI melanoma. In addition, the figures for the GI50 with RXF 393 renal, in the experiment with SR leukemia and with T-47D breast were 16.8 µM, 1.8 µM and 5.67 µM, respectively. Also, the TGI in the experiment on A549 NSCLC is > 100 µM; in the experiment on BT-549 breast it was 33.8 µM; with CCRF-CEM leukemia, 6.83 µM; in the experiment on HCT-116 colon it was 3.85 µM; in the experiment with HS 578T breast it was 4.42 µM; in the experiment with LOX IMVI melanoma it was 3.87 µM. Moreover, the figures for the TGI in the experiment on RXF 393 renal, in the experiment with SR leukemia and in the experiment on T-47D breast were 34.8 µM, 4.28 µM and 26.5 µM, respectively.
